# Values quoted from earlier work, collected in patent publication US11804282B1, “Systems and methods for drug clustering” (nference, Inc., priority 2018, dated 2023).
# Legend:
# [1] = test system: distinct purified proteins; conditions: proteome-wide screening data (FIG. 3 inset)
# VEGFR2 protein = VEGFR2 protein (Homo sapiens, UniProt P35968); conditions: poly-protein screening (FIG. 4 inset)
# VEGFR2 protein, sequence (P35968 20-1356): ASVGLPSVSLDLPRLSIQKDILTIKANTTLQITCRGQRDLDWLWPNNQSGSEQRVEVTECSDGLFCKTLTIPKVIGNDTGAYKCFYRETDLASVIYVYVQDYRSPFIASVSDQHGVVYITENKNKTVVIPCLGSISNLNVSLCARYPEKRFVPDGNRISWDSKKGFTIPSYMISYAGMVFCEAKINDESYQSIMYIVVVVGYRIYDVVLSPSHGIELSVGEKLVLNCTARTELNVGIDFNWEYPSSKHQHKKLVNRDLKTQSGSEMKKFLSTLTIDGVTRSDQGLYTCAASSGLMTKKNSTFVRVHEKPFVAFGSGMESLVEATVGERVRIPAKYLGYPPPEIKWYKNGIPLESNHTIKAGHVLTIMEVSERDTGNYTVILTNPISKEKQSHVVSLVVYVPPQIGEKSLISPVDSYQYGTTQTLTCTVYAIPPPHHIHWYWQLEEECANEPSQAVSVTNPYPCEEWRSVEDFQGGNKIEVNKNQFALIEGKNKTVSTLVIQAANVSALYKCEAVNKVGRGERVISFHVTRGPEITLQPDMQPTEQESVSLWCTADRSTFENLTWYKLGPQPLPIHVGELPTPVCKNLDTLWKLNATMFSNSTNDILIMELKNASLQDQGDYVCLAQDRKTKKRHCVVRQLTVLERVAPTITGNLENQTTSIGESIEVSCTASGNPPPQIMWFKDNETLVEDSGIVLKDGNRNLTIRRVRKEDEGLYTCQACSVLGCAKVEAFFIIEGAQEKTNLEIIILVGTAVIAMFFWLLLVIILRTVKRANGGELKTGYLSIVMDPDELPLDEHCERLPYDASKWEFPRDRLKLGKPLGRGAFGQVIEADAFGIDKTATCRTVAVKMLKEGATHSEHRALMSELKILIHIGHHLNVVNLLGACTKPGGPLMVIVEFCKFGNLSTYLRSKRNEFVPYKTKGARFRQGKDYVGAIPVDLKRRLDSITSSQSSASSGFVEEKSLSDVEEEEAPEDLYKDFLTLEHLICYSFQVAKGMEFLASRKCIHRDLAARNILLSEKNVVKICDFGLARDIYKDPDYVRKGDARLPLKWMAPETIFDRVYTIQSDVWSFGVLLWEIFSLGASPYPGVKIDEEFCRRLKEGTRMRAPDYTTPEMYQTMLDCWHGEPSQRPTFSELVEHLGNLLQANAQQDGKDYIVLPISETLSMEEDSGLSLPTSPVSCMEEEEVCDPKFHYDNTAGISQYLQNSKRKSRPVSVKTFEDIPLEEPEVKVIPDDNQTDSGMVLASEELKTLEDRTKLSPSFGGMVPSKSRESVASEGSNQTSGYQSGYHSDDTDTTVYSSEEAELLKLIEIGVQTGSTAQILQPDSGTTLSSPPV
structure (smiles),measurement,setting,value
Cc1ccc(NC(=O)c2ccc(CN3CCN(C)CC3)cc2)cc1Nc1nccc(-c2cccnc2)n1 [imatinib],number of distinct purified proteins bound,[1],less than 50 distinct purified proteins
same,affinity to the VEGFR2 protein,VEGFR2 protein,almost no affinity
